# Results as given in US12662707B2, “MYC amplification drives resistance to pan-RAS inhibitors in pancreatic cancer” (The Trustees of Columbia University in the City of New York, priority 2024, dated 2026).
# Key:
# [1] = test system: 796 human tumor cell lines; experiment: PRISM multiplex cell line screening; format: cell-based; conditions: 5 days; relative to the other cell lines of the screen
# Experimental: The PRISM cell set consisted of 796 cell lines representing more than 45 lineages, which largely overlapped with the Cancer Cell Line Encyclopedia (CCLE) (portals.broadinstitute.org/ccle). Cell lines were grown in RPMI without phenol red, supplemented with 10% or 20% FBS for adherent and suspended lines, respectively. Parental cell lines were stably infected with a unique 24-nucleotide DNA barcode via lentiviral transduction and blasticidin selection. After selection, barcoded cell lines were expanded and subjected to quality control (mycoplasma contamination test, a SNP test for confirming cell line identity, and barcode ID confirmation). Approved cell lines were then pooled (20-25 cell lines per pool) based on doubling time similarity and frozen in assay-ready vials.
# RMC-7977 was added to 384-well plates at 8-point concentration with 3-fold dilutions in triplicate. These assay-ready plates were then seeded with the thawed cell line pools. […]
# Each cell line's unique barcode is located in the 3′UTR of the blasticidin resistance gene and therefore is expressed as mRNA. […] Finally, Luminex beads that recognize the specific barcode sequences in the cell set were hybridized to the PCR products and detected using a Luminex scanner which reports signal as a median fluorescent intensity (MFI). […]
# [2] = test system: pERK, pS6, CC3, Cyclin A2 in KPC tumors; experiment: Pharmacodynamic IHC of KPC tumors (SD, 1 wk, EP); format: in vivo, mouse
# Experimental: Tumor formation in KPC mice was monitored by bi-weekly palpation. […] Treatments were performed every other day via oral gavage for 1 week. […] Following two consecutive ultrasounds, RMC-7977-treated animals were sacrificed either 4 (n=7) or 24 hours (n=4) after last dose and Vehicle-treated animals were sacrificed between 4-24 hours post last dose. Tissue was harvested and preserved as previously described (See Xenograft studies section). Additional group of KPC mice was also treated with a single dose of RMC-7977 (n=10) or Vehicle (n=3) and tissues were harvested at 4 or 24 hours post dose as previously described. […] RNA was extracted from at least 20 mg of indicated OCT or LN2 frozen tissue using an RNeasy Mini Kit (Qiagen, 74104) and a High Throughput Tissue grinder following the manufacturer's protocol. Reverse transcription was carried out using High-Capacity cDNA Reverse Transcription Kit (ABI, 4368814) according to the manufacturer's protocol. The cDNA product was used for qPCR analysis using TaqMan Gene Expression Master Mix (ABI, 4369016) or iTaq Universal SYBR Green Supermix (BioRad, 172-5125) depending on the primer. […] For qPCR, Ct value of MAPK signature genes and 18S were obtained for analysis. Generated Ct value were normalized to 18S, and then the mean relative mRNA expression levels of each sample were normalized to the average of the vehicle control group. Values were plotted as relative change in mRNA expression compared to Vehicle. Means±s.d. were shown. For primer sequences and more information. All tissues were fixed for up to 24 hours using 10% neutral buffered formalin and then moved to 70% ethanol for long term storage. All stainings were performed on 4-μm tissue sections. Sections were deparaffinized using a Leica XL ST5010 autostainer, after which slides were subjected to heat-activated epitope retrieval. […] Slides were further blocked in serum for 1 hour, and primary antibodies were added for overnight incubation at 4° C. […] Following incubation, ImmPACT DAB peroxidase (Vector Laboratories, SK-4100) was used to develop the stain and hematoxylin was used as nuclear counterstain. Stained slides were imaged at 40× magnification. Quantitative analyses of IHC images were performed using ImageJ.
compound,measurement,setting,value
CCn1c(-c2cc(N3CCN(C4CC4)CC3)cnc2[C@H](C)OC)c2c3cc(ccc31)-c1csc(n1)C[C@H](NC(=O)[C@H]1[C@@H]3COC[C@@H]31)C(=O)N1CCC[C@H](N1)C(=O)OCC(C)(C)C2 [RMC-7977],sensitivity of human PDAC cell lines in PRISM screen (AUC),[1],among the most sensitive
same,evaluable EP KPC tumors with full inhibition of pERK expression,"[2]; 6 of 7 tumors, 4 hours post final dose",86%
same,proliferation (Cyclin A2) in EP tumors,"[2]; EP tumors, 24 hours post-dosing",no longer deeply suppressed
same,apoptosis in KPC tumors,"[2]; SD, 1 Wk and EP samples, 4 hours after treatment",wave of apoptosis
same,reduced proliferation (Cyclin A2) in KPC tumors,[2]; after a week of treatment,pronounced and significant
same,proliferation (Cyclin A2) in KPC tumors,[2]; single dose,trend towards reduced proliferation
same,time to restoration of Ras/Mapk signaling,[2]; single dose,≤ 24 h
same,Ras/Mapk signaling (pERK IHC) in KPC tumors,"[2]; single dose, 4 hours after treatment",near-complete inhibition
same,pS6 (S235/S236 and S240/S244) in EP tumors,[2]; the same 6 EP tumors,continued inhibition
